Each structure is given as a SMILES string.

The test system of one assay is mice. Briefly: Anti-hypoxia action (hypobaric hypoxia, existence time at 180 mmHg, life prolongation ratio). In kind it is in vivo. To be noted: Mus musculus, ip; male ddy mice, administration dose = 12.5 mg/kg in the abdominal cavity, 30 minutes before pressure reduction to 180 mmHg; ratio of existence time to saline control.
`CCN(CC)C(=O)Sc1nc(-c2ccccc2)c[nH]1` [compound 34]: the response vs control in vivo at 12.5 mg/kg stood at 100%. For `CCCN(CCC)C(=O)Sc1nc(-c2ccccc2)c[nH]1` [compound 35], the response vs control in vivo at 12.5 mg/kg is 87%. As for `O=C(Sc1nc(-c2ccccc2)c[nH]1)N1CCCC1` [compound 36], the response vs control in vivo at 12.5 mg/kg stood at 94%. Turning to `O=C(Sc1nc(-c2ccccc2)c[nH]1)N1CCCCC1` [compound 37], the response vs control in vivo at 12.5 mg/kg is 85%.

On to `O=C(Sc1nc(-c2ccccc2)c[nH]1)N1CCOCC1` [compound 39], for which the response vs control in vivo at 12.5 mg/kg came to 104%. As for `O=C(Sc1nc(-c2ccccc2)c[nH]1)N1CCSCC1` [compound 40], the response vs control in vivo at 12.5 mg/kg worked out at 93%. Regarding `O=C(Sc1nc(-c2ccccc2)c[nH]1)N1CCCc2ccccc21` [compound 41], the response vs control in vivo at 12.5 mg/kg was 76%. As to `Cc1ccc(-c2c[nH]c(SC(=O)N(C)C)n2)cc1` [compound 46], the response vs control in vivo at 12.5 mg/kg worked out at 95%.

For `CN(C)C(=O)Sc1nc(-c2ccc(Cl)cc2)c[nH]1` [compound 48], the response vs control in vivo at 12.5 mg/kg stood at 115%.

Still in this assay, the particulars now being: Mus musculus, ip; male ddy mice, administration dose = 50 mg/kg in the abdominal cavity, 30 minutes before pressure reduction to 180 mmHg; ratio of existence time to saline control.
For the compound `CN(C)C(=O)Sc1nccn1-c1ccc([N+](=O)[O-])cn1` [compound 51], the response vs control in vivo at 50 mg/kg stood at 245%. Turning to `CN(C)C(=O)Sc1nccn1-c1ncccc1[N+](=O)[O-]` [compound 52], the response vs control in vivo at 50 mg/kg was 192%.

The next assay relates to mice. The description is as above. The format is in vivo. The settings on record: Mus musculus, ip; male ddy mice, administered in the abdominal cavity at 25 mg/kg, 30 minutes before pressure reduction to 180 mmHg; ratio of existence time to saline control (cut-off 15 minutes). The procedure:
With respect to each of the above-mentioned compounds (compounds Nos. 1 through 54), the anti-hypoxia action was tested according to the following method and was evaluated by the life prolongation ratio.
Male mice if the ddy-line, which were 5 to 8 weeks old, were used as test animals, and they were divided into groups, each consisting of 7 to 10 mice. The compound to be tested was dissolved in a physiological saline solution. If the compound to be tested was insoluble, the compound was suspended in 1% gum arabic. The solution or suspension was administered in the abdominal cavity at a does of 25 mg/kg and when 30 minutes had passed from the point of the administration, the mice were independently placed one by one into a desiccator (capacity = 1 liter) and the pressure in the desiccator was reduced to 180 mmHg by a vacuum pump.
The period of from the point of initiation of the reduction of the pressure to the point of the stop of breathing was regarded as the existence time. When the mouse lived for more than 15 minutes, the calculation was done while regarding the existence time as being 15 minutes.
The significant difference test of the existence time was carried out according to the student t-test method using controls to which a physiological saline solution alone had been administered. The ratio of the existence time of the sample-administered group to the existence time of the physiological saline solution-administered control group was calculated as the life prolongation ratio.
As to `CN(C)C(=O)n1cnc(Cc2ccccc2)c1` [compound 1, 4-benzyl-1-(N,N-dimethylcarbamoyl)imidazole], the response vs control in vivo at 25 mg/kg stood at 85%. Consider `Cc1cccc(C)c1Cc1cn(C(=O)N(C)C)cn1` [compound 2], for which the response vs control in vivo at 25 mg/kg was 305%.

On to `Cc1cc(C)c(Cc2cn(C(=O)N(C)C)cn2)c(C)c1` [compound 4], for which the response vs control in vivo at 25 mg/kg was 184%.

For the compound `Cc1cccc(C)c1Cc1cn(C(=O)N(C)C(C)C)cn1` [compound 9], the response vs control in vivo at 25 mg/kg turned out to be 466%. Take `Cc1cccc(C)c1Cc1cn(C(=O)N(C)C2CCCCC2)cn1` [compound 10]: the response vs control in vivo at 25 mg/kg came to 253%. In the case of `C=CCN(C)C(=O)n1cnc(Cc2c(C)cccc2C)c1` [compound 11], the response vs control in vivo at 25 mg/kg was determined as 255%.

`CON(C)C(=O)n1cnc(Cc2c(C)cccc2C)c1` [compound 12]: the response vs control in vivo at 25 mg/kg turned out to be 109%. Turning to `CCN(CC)C(=O)n1cnc(Cc2c(C)cccc2C)c1` [compound 13], the response vs control in vivo at 25 mg/kg amounted to 281%. As to `Cc1cccc(C)c1Cc1cn(C(=O)N2CCCCC2)cn1` [compound 14], the response vs control in vivo at 25 mg/kg was found to be 270%.

Turning to `Cc1cccc(C)c1Cc1cn(C(=O)N2CCOCC2)cn1` [compound 17], the response vs control in vivo at 25 mg/kg worked out at 165%. With `CCOC(=O)n1cnc(Cc2c(C)cccc2C)c1` [compound 18], the response vs control in vivo at 25 mg/kg stood at 182%. Same read-out and setting: the same measure for `Cc1cccc(C)c1Cc1cn(C(=S)N(C)C)cn1` [compound 20]: 243%; for `CN(C)C(=O)Sc1nc(-c2ccccc2)c[nH]1` [compound 21, 2-(N,N-dimethylcarbamoylthio)-4-phenylimidazole]: 283%; for `CN(C)C(=O)Sc1nc(-c2ccccc2)cn1C` [compound 22]: 230%. For `CCn1cc(-c2ccccc2)nc1SC(=O)N(C)C` [compound 23], the response vs control in vivo at 25 mg/kg came out at 264%. `CCCn1cc(-c2ccccc2)nc1SC(=O)N(C)C` [compound 24]: the response vs control in vivo at 25 mg/kg was 163%.

With `CC(C)n1cc(-c2ccccc2)nc1SC(=O)N(C)C` [compound 25], the response vs control in vivo at 25 mg/kg stood at 119%. For `CN(C)C(=O)Sc1nc(-c2ccccc2)cn1C1CCCCC1` [compound 26], the response vs control in vivo at 25 mg/kg was found to be 132%. `CN(C)C(=O)Sc1nc(-c2ccccc2)cn1-c1ccccc1` [compound 27]: the response vs control in vivo at 25 mg/kg was 146%. Still for that read-out and setting: the same measure for `CN(C)C(=O)Sc1nc(-c2ccccc2)cn1-c1ccc([N+](=O)[O-])cn1` [compound 28, 2-(N,N-dimethylcarbamoylthio)-1-(5-nitropyridinyl)-4-phenylimidazole]: 102%; for `CN(C)C(=O)Sc1nc(-c2ccccc2)cn1-c1ncccc1[N+](=O)[O-]` [compound 29]: 110%; for `CN(C)C(=O)Sc1nc(-c2ccccc2)cn1C(=O)N(C)C` [compound 30, 1-(N,N-dimethylcarbamoyl)-2-(N,N-dimethylcarbamoylthio)-4-phenylimidazole]: 115%.

On to `CCOC(=O)n1cc(-c2ccccc2)nc1SC(=O)N(C)C` [compound 31], for which the response vs control in vivo at 25 mg/kg amounted to 123%. `CC(=O)n1cc(-c2ccccc2)nc1SC(=O)N(C)C` [compound 32]: the response vs control in vivo at 25 mg/kg is 281%.

Take `CC(=O)n1cc(-c2ccccc2)nc1SC(=O)N(C)C(C)C` [compound 33]: the response vs control in vivo at 25 mg/kg is 127%. For `O=C(Sc1nc(-c2ccccc2)cn1C(=O)N1CCCCC1)N1CCCCC1` [compound 38], the response vs control in vivo at 25 mg/kg worked out at 113%. Consider `Cc1[nH]c(SC(=O)N(C)C)nc1-c1ccccc1` [compound 42], for which the response vs control in vivo at 25 mg/kg came out at 192%. In the case of `CCc1[nH]c(SC(=O)N(C)C)nc1-c1ccccc1` [compound 43], the response vs control in vivo at 25 mg/kg was determined as 121%. On the same count and under the same terms, the figure for `CCOC(=O)c1[nH]c(SC(=O)N(C)C)nc1-c1ccccc1` [compound 44] is 143%; for `Cc1ccccc1-c1c[nH]c(SC(=O)N(C)C)n1` [compound 45] it is 192%; for `COc1ccc(-c2c[nH]c(SC(=O)N(C)C)n2)cc1` [compound 47] it is 165%. As for `CN(C)C(=O)Sc1nc(-c2ccc(-c3ccccc3)cc2)c[nH]1` [compound 49], the response vs control in vivo at 25 mg/kg came to 127%.

`CN(C)C(=O)Sc1nccn1-c1ccccc1` [compound 50]: the response vs control in vivo at 25 mg/kg was determined as 127%. Same read-out and setting: the figure for `Cn1c(=O)sc2nc(-c3ccccc3)cn2c1=O` [compound 53, 3-methyl-7-phenyl-1,3,5-thiadiazino[3,2-a]imidazole-2,4(3H)-dione] is 145%; for `CCn1c(=O)sc2nc(-c3ccccc3)cn2c1=O` [compound 54] it is 137%.

Still in this assay, the particulars now being: male ddy mice, administered in the abdominal cavity at 25 mg/kg, 30 minutes before pressure reduction to 180 mmHg; ratio of existence time to saline control (cut-off 15 minutes).
For the compound `CN(C)C(=O)n1cnc(C[n+]2ccccc2)c1` [compound 19], the “Life Prolongation Ratio” value is 1.09.

The record behind these values is patent EP0332295A2, “Novel imidazole derivative” (priority 1988, dated 1989).
